For the assay, the target named is T1, Msh2–Msh6 (Saccharomyces cerevisiae, UniProt P25847+Q03834, Q03834:K988A).
T1 sequence (P25847 1-964): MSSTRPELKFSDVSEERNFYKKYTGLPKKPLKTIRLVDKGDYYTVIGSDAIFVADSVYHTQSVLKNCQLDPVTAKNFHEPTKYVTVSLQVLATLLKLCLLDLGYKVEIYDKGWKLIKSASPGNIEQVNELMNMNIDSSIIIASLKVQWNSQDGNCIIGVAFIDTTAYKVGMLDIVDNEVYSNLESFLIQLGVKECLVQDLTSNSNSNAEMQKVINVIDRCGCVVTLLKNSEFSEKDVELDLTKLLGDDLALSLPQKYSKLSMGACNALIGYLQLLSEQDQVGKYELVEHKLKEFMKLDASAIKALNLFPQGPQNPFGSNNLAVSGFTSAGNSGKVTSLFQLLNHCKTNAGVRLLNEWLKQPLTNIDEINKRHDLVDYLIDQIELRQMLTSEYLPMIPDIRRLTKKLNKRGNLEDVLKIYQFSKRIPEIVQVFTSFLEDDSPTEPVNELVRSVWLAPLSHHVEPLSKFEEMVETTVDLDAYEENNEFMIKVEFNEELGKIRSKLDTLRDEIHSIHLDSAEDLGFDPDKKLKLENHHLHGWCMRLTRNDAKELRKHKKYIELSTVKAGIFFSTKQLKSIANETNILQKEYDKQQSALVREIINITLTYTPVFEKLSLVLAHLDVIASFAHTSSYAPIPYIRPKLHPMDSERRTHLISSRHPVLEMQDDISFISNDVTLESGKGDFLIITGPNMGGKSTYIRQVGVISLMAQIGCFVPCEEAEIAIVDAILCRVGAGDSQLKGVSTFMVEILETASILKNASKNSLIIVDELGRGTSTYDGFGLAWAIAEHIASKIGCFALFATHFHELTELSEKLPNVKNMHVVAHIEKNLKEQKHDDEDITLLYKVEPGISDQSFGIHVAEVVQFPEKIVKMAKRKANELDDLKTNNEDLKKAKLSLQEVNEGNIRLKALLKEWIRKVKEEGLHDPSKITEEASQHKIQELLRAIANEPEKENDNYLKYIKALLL
T1 sequence (Q03834 1-1242 K988A): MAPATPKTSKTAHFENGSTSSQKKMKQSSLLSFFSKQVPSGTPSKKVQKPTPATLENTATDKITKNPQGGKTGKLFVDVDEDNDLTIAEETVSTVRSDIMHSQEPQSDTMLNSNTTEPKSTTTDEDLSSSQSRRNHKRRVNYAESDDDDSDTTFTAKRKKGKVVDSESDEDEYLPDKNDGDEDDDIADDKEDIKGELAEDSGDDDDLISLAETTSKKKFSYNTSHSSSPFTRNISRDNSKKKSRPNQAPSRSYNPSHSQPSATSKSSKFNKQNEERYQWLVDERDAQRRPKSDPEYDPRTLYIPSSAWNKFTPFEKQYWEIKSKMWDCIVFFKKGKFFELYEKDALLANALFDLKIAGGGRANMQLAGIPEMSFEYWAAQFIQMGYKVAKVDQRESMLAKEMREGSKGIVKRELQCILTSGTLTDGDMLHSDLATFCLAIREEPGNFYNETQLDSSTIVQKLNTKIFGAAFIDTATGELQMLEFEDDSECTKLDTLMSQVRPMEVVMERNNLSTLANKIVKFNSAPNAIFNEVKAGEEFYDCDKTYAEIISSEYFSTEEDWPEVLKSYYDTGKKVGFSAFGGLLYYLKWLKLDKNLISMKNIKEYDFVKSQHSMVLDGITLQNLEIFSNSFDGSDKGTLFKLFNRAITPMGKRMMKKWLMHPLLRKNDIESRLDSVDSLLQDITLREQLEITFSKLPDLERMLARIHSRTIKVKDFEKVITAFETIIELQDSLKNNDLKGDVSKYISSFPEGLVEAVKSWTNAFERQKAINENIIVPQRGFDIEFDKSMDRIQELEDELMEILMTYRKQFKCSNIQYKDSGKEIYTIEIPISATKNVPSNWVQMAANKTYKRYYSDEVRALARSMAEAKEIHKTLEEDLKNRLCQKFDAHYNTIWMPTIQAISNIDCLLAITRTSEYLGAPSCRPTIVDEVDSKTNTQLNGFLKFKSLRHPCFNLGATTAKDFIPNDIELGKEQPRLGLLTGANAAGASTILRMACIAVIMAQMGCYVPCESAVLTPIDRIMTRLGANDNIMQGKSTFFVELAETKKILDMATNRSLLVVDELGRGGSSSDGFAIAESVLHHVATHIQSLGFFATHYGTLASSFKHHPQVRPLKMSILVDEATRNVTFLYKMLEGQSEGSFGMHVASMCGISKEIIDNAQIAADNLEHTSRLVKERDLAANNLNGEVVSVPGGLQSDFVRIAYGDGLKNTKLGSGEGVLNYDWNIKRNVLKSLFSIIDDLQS
Nature of the assay: UV cross-linking of [γ-32P]ATP, SDS-PAGE, phosphorimaging. Format: binding. The conditions noted are these: labelled compound; no Mg2+, EDTA, pH 8, on ice; Msh2 site at 60 μM ATP, Msh6 site at 1 μM ATP.

Turning to `Nc1ncnc2c1ncn2[C@@H]1O[C@H](COP(=O)(O)OP(=O)(O)OP(=O)(O)O)[C@@H](O)[C@H]1O` [ATP], the “relative ATP binding” value is “Msh2–Msh6(K988A) and Msh2–Msh6(K988R) mutant complexes had partial ATP binding defects at the Msh2 subunit”.
